Assays:
[1] = system: methamphetamine (Meth)-induced hyper-locomotor activity; details: cited from earlier work
WT C57/BL6 mice = type: in vivo
PDE4D = PDE4D (Homo sapiens, UniProt Q08499); assay: IC50 determination on PDE4 isoforms in vitro; type: binding; details: read-out: IC50 on PDE4D
[2] = system: cocaine self-administered mice; assay: Cocaine self-administration in mice
[3] = Brain and blood concentration of KVA-D-88 in mice; type: in vivo
PDE4B = PDE4B (Homo sapiens, UniProt Q07343); assay: IC50 determination on PDE4 isoforms in vitro; type: binding; details: read-out: IC50 on PDE4B
[4] = Pharmacokinetic study of KVA-D-88 in mice; type: in vivo
alcohol intake = details: cited from earlier work; for alcohol intake: mice, without altering total fluid intake, alcohol-induced sedation or alcohol metabolism
[5] = system: Meth self-administered rats; details: cited from earlier work
[6] = system: heroin self-administration; details: cited from earlier work
cocaine reward = details: cited from earlier work
[7] = system: alcohol self-administration; details: cited from earlier work
[8] = system: morphine-induced hyper-locomotor activity; details: cited from earlier work
[9] = FR1 schedule, 2 h, 5 and 2.5 mg/kg i.p. 30 min before, P < 0.05
[10] = FR3 schedule, 2 h session, 5 mg/kg, P < 0.05

Chain of PDE4D (Q08499 whole entry, canonical isoform): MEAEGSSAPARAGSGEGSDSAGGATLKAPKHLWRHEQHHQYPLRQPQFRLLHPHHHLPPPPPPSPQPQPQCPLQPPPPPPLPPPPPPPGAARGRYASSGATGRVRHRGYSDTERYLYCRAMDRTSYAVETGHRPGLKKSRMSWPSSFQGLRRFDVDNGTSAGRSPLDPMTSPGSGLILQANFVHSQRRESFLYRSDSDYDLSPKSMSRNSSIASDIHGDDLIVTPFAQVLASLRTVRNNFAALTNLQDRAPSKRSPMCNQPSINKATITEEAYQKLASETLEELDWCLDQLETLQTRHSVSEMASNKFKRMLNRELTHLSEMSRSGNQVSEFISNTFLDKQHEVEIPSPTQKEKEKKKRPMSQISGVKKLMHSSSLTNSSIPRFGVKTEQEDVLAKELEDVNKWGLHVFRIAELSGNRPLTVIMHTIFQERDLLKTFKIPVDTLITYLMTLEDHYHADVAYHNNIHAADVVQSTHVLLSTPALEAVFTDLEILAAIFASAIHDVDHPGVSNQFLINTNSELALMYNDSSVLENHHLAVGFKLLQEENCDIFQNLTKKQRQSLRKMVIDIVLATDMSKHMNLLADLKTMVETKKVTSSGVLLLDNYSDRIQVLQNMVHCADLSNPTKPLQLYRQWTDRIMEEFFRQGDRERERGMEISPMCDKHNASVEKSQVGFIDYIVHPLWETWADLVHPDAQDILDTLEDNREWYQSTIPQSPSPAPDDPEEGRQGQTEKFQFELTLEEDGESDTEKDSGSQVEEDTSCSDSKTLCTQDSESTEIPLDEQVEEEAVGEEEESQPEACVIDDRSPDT
Chain of PDE4B (Q07343 whole entry, canonical isoform): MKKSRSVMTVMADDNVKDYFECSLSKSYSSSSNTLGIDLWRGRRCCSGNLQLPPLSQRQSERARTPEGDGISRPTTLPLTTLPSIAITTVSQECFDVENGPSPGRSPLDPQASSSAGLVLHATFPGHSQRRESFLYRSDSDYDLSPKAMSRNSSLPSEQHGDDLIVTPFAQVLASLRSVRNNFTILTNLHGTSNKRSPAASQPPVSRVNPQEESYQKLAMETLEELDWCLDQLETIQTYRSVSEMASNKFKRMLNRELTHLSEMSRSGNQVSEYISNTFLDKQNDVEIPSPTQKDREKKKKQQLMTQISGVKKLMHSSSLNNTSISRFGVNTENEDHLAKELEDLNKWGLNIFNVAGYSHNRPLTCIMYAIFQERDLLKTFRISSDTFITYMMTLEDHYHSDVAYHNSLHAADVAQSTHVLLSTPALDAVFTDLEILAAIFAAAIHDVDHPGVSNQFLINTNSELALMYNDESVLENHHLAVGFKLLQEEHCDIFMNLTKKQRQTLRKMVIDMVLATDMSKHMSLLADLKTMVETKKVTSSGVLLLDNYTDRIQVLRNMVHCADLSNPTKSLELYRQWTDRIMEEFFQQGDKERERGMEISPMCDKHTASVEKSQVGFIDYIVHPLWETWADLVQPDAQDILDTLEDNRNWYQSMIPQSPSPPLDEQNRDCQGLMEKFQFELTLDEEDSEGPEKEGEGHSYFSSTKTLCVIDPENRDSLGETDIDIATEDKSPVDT

CC(N)C(=O)c1c(C(C)C)nn2ccccc12 (stereo not shown) [AV1013]
Meth-induced hyper-locomotor activity and sensitization [1]: reduced

O=C(c1cc2cccnc2n1-c1ccc(Cl)c(Cl)c1)N1CC(F)(F)C1 [KVA-D-88]
effect on cocaine-mediated hyper-locomotion (WT C57/BL6 mice; female mice, both testing doses (5 or 10 mg/kg i.p.), P < 0.05): significantly blocked cocaine-mediated hyper-locomotion
effect on locomotor activity at basal levels (WT C57/BL6 mice; mice, KVA-D-88 without cocaine): minimal effects
effect on cocaine-mediated locomotor sensitization (WT C57/BL6 mice; mice, daily pre-administration before cocaine for 7 consecutive days): strikingly blocked cocaine-mediated locomotor sensitization
IC50 (PDE4D): 880 nM
rate of cocaine self-administration ([2]; FR1 schedule, 5.0 mg/kg, P < 0.05): strikingly reduced
number of active nose-pokes [2, 9]: significantly decreased
number of cocaine infusions [2, 9]: significantly decreased
numbers of active nose-poke [2, 10]: significantly decreased
numbers of cocaine infusions [2, 10]: significantly decreased
break point ([2]; PR schedule, 3 h session, 5 mg/kg, P < 0.05): significantly decreased the numbers of break point
fold stronger than apremilast on cocaine inhibition ([2]; cocaine self-intake, comparison of effective doses): ~10 fold
effect on cocaine self-intake (active nose poke), dose-response ([2]; dose 0.5 mg/kg): no inhibitory effect
effect on cocaine self-intake (active nose poke), dose-response ([2]; dose 1.0 mg/kg): no inhibitory effect
effect on cocaine self-intake (active nose poke), dose-response ([2]; dose 2 mg/kg): showed the inhibitory effects but did not reached the significance
effect on cocaine self-intake (active nose poke), dose-response ([2]; dose 4 mg/kg, P < 0.05): significant effects
average concentration in the blood ([3]; i.p. 10 mg/kg, 30 min later): 3899.2 ng/mL
concentration ratio of brain: blood (Kp) ([3]; i.p. 10 mg/kg, 30 min later): approximately 0.6
average concentration in the brain ([3]; i.p. 10 mg/kg, 30 min later, whole brain homogenates): 2347.7 ng/g
concentration ratio (brain vs. plasma) ([3]; i.v. dosing as printed in the discussion): 0.6
concentration ratio (brain vs. plasma) ([3]; p.o. dosing (10 mg/kg)): 1.2
IC50 (PDE4B): 140 nM
half-life (t1/2) ([4]; i.v. injection 1 mg/kg): 6.1 h
mean residence time (MRT) ([4]; i.v. injection 1 mg/kg): 5.7 h
AUC from time zero to infinity (AUC∞) ([4]; i.v. injection 1 mg/kg, plasma): 1387.9 ng/mL
AUC from time zero to the last measurable concentration (AUClast) ([4]; i.v. injection 1 mg/kg, plasma): 1382.9 ng/mL
maximum plasma concentration (Cmax) ([4]; i.v. injection 1 mg/kg, plasma): 898.2 ng/mL
AUC∞ ([4]; oral gavage 10 mg/kg): 10825.9 ng/mL
Cmax in the blood ([4]; oral gavage 10 mg/kg): 2150.5 ng/mL
half-life (t1/2) ([4]; oral gavage 10 mg/kg): 7.16 h
mean residence time (MRT) ([4]; oral gavage 10 mg/kg): 9 h
time to reach maximum concentration in the blood (Tmax) ([4]; oral gavage 10 mg/kg): 0.25 h
half-life ([4]; through either i.v. injection or p.o. approach): 6 to 7 h

CCCCOc1cc(CC2CNC(=O)N2)ccc1OC (stereo not shown) [Ro 20-1724]
alcohol intake (alcohol intake): reduced alcohol intake

CCOc1cc([C@@H](CS(C)(=O)=O)N2C(=O)c3cccc(NC(C)=O)c3C2=O)ccc1OC [apremilast, reference compound]
reward-related behavior induced by alcohol (alcohol intake): decreasing the reward-related behavior induced by alcohol
effect on numbers of cocaine self-intake ([2]; dose 5 mg/kg): did not decrease
effect on numbers of cocaine self-intake ([2]; dose 20 mg/kg): significant its inhibitory effects

CC(C)C(=O)c1c(C(C)C)nn2ccccc12 [ibudilast]
Meth-induced hyper-locomotor activity and sensitization [1]: reduced
drug seeking and intake behaviors ([5]; Meth self-administered rats): decreased drug seeking and intake behaviors
Meth-mediated seeking and consumption behaviors [5]: effective in attenuating

COc1ccc(C2CNC(=O)C2)cc1OC1CCCC1 (stereo not shown) [rolipram]
heroin self-administration ([6]; fixed ratio 1 (FR1)): did not significantly inhibit
rewarding effects of heroin ([6]; progressive ratio (PR) paradigm): decreased the rewarding effects
alcohol intake (alcohol intake): reduced alcohol intake
Meth-mediated seeking and consumption behaviors [5]: effective in attenuating
cocaine-induced locomotor sensitization and conditional place preference (cocaine reward; mice): attenuated
cocaine reward, incentive saliency and seeking behavior (cocaine reward; open field test, CPP and self-administration): reduce cocaine reward, incentive saliency and seeking behavior
2-bottle choice alcohol consumption and preference [7]: decreased
alcohol self-administration [7]: dose-dependently reduced
morphine-induced hyper-locomotor activity and CPP [8]: reduced

Reference: PMC8383802 (ACS chemical neuroscience, 2020)
